Here are results for 6 compounds from patent publication US20230331803A1, “CO-AGONISTS OF THE GLP-1 AND AMYLIN RECEPTORS” (priority 2020, published 2023).

For assay [1], the target named is T1, human amylin receptor (hAmyR3) (Homo sapiens, UniProt O60896+P30988).
T1 construct: host or cells: BHK cells (Hollex-1 line: human calcitonin receptor (a) + CRE-Luc), further transfected with human RAMP3
The assay is described as follows: Human amylin receptor in vitro potency assay (CRE-luciferase reporter, BHK cells).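 As to all read-outs here: BHK cells expressing human calcitonin receptor plus RAMP3 (amylin-3 receptor) with a CRE-luciferase reporter, agonist activity read as luminescence from cAMP-driven transcription, 7-point serial dilutions.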 The note with it: for EC50: Table 4a, BHK hAmyR3/CRE-Luc cells, 3 hours, read-out: Human AmyR3 potency [EC50 (pM)]. The format is cell-based. (Reporter assays use an easily measured gene product as a stand-in for the process of interest.)

Another assay concerns the target T2, human GLP-1 receptor (Homo sapiens, UniProt P43220).
T2 construct: expressed in transfected cells; host or cells: BHK (Baby Hamster Kidney) cells, clone BHK 467-12A KZ-10, stably transfected, with CRE-luciferase reporter
The assay is described as follows: Human GLP-1 receptor in vitro potency assay (CRE-luciferase reporter, BHK cells). The format is cell-based.

pEC50: −log10 of the molar value. Like-named read-outs stand apart in the source and are kept apart here. Starred links: 1 amine or outer side, 2 acyl side, 3 side chain; linkers in the order of their positions; H or OH if unused. Positions of bridges follow the written chain, without caps; N, C: chain ends. Non-standard residues stand in square brackets, D forms with d. Groups on a side chain read outwards from the residue. *: point of attachment. C20 diacid = O=C(O)CCCCCCCCCCCCCCCCCCC(=O)*; C18 diacid = O=C(O)CCCCCCCCCCCCCCCCC(=O)*; C16 diacid = O=C(O)CCCCCCCCCCCCCCC(=O)*; γGlu = O=C(O)[C@H](CCC(=O)[*:2])N[*:1]; AEEA = NCCOCCOCC(=O)O; Aib = CC(C)(N)C(=O)O

The term pEC50 denotes the negative decadic logarithm of the EC50, by convention in mol/L. The low end stands for a large EC50, the high end for a small EC50. The term EC50 denotes the concentration giving half of the maximal effect.

T1 sequence (P30988 25-474): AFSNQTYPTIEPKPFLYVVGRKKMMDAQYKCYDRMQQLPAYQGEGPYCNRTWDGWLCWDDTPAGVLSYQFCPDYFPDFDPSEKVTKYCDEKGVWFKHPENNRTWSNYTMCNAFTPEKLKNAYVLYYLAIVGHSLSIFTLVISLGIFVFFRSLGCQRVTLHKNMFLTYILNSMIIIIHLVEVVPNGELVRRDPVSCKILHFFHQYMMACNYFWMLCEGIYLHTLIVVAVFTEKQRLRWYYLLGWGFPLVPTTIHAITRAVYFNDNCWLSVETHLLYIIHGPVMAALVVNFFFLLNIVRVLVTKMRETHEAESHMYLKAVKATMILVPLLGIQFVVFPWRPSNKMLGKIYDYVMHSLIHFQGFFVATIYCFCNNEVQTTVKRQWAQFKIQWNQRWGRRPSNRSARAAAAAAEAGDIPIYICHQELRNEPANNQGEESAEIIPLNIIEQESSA
T1 sequence (O60896 24-148): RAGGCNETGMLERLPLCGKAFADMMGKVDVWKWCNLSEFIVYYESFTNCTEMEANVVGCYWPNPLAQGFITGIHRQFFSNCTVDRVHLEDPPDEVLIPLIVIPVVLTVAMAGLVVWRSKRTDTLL
T2 sequence (P43220 24-463): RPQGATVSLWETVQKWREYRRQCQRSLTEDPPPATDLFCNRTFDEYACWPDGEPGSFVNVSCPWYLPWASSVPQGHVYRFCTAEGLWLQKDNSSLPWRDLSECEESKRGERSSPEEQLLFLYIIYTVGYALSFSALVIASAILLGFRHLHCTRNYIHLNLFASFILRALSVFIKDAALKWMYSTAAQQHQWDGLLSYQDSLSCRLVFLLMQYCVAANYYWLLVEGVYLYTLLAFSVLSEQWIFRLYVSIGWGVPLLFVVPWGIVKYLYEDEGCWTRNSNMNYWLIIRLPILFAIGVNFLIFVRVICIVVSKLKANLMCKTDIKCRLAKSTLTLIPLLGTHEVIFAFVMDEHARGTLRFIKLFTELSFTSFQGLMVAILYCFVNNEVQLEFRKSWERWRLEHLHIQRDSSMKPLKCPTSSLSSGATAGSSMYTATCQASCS

On to `CC[C@H](C)[C@H](NC(=O)[C@H](Cc1ccccc1)NC(=O)[C@H](CCC(=O)O)NC(=O)[C@H](CCCCNC(=O)COCCOCCNC(=O)COCCOCCNC(=O)CC[C@H](NC(=O)CCCCCCCCCCCCCCCCC(=O)O)C(=O)O)NC(=O)[C@H](C)NC(=O)[C@H](C)NC(=O)[C@H](CCC(N)=O)NC(=O)CNC(=O)[C@H](CCC(=O)O)NC(=O)[C@H](CC(C)C)NC(=O)[C@H](Cc1ccc(O)cc1)NC(=O)[C@H](CO)NC(=O)[C@H](CO)NC(=O)[C@@H](NC(=O)[C@H](CC(=O)O)NC(=O)[C@H](CO)NC(=O)[C@@H](NC(=O)[C@H](Cc1ccccc1)NC(=O)[C@@H](NC(=O)CNC(=O)[C@H](CCC(=O)O)NC(=O)C(C)(C)NC(=O)[C@@H](N)Cc1c[nH]cn1)[C@@H](C)O)[C@@H](C)O)C(C)C)C(=O)N[C@@H](C)C(=O)N[C@@H](Cc1c[nH]c2ccccc12)C(=O)N[C@@H](CC(C)C)C(=O)N[C@H](C(=O)N[C@@H](CCCNC(=N)N)C(=O)NCC(=O)N[C@@H](CCCNC(=N)N)C(=O)NCC(=O)N[C@@H](CCCCNC(=O)COCCOCCNC(=O)COCCOCCNC(=O)CC[C@H](NC(=O)CCCCCCCCCCCCCCCCC(=O)O)C(=O)O)C(=O)N[C@@H](CCC(N)=O)C(=O)N[C@@H](CCC(=O)O)C(=O)N1CCC[C@H]1C(=O)NCC(=O)N[C@@H](CCC(N)=O)C(=O)N[C@@H](CCC(=O)O)C(=O)N1CCC[C@H]1C(=O)N[C@@H](CCC(=O)O)C(=O)N[C@@H](C)C(=O)N[C@@H](CO)C(=O)N[C@@H](CCC(=O)O)C(=O)N[C@@H](CC(C)C)C(=O)N[C@@H](CO)C(=O)N[C@H](C(=O)N[C@@H](C)C(=O)N[C@@H](C)C(=O)N[C@@H](CC(C)C)C(=O)NCC(=O)N[C@@H](CCCNC(=N)N)C(=O)N[C@@H](CC(C)C)C(=O)N[C@@H](CO)C(=O)N[C@@H](C)C(=O)N[C@@H](CCC(=O)O)C(=O)N[C@@H](CC(C)C)C(=O)N[C@@H](Cc1c[nH]cn1)C(=O)N[C@@H](CCC(=O)O)C(=O)N[C@@H](CC(C)C)C(=O)N[C@@H](C)C(=O)N[C@H](C(=O)N[C@@H](CC(C)C)C(=O)N1CCC[C@H]1C(=O)N[C@@H](CCCNC(=N)N)C(=O)N[C@H](C(=O)N[C@@H](CCC(=O)O)C(=O)N[C@H](C(=O)NCC(=O)N[C@@H](CO)C(=O)NCC(=O)N[C@@H](CO)C(=O)N1CCC[C@H]1C(N)=O)[C@@H](C)O)[C@@H](C)O)[C@@H](C)O)[C@@H](C)O)C(C)C` [Compound 0056], for which the negative-log EC50 (pEC50) is 9.92 in assay [1] and 10.38 on human GLP-1 receptor.
The like results for `CC[C@H](C)[C@H](NC(=O)[C@H](Cc1ccccc1)NC(=O)[C@H](CCC(=O)O)NC(=O)[C@H](CCCCNC(=O)COCCOCCNC(=O)COCCOCCNC(=O)CC[C@H](NC(=O)CCCCCCCCCCCCCCCCC(=O)O)C(=O)O)NC(=O)[C@H](C)NC(=O)[C@H](C)NC(=O)[C@H](CCC(N)=O)NC(=O)CNC(=O)[C@H](CCC(=O)O)NC(=O)[C@H](CC(C)C)NC(=O)[C@H](Cc1ccc(O)cc1)NC(=O)[C@H](CO)NC(=O)[C@H](CO)NC(=O)[C@@H](NC(=O)[C@H](CC(=O)O)NC(=O)[C@H](CO)NC(=O)[C@@H](NC(=O)[C@H](Cc1ccccc1)NC(=O)[C@@H](NC(=O)CNC(=O)[C@H](CCC(=O)O)NC(=O)C(C)(C)NC(=O)[C@@H](N)Cc1c[nH]cn1)[C@@H](C)O)[C@@H](C)O)C(C)C)C(=O)N[C@@H](C)C(=O)N[C@@H](Cc1c[nH]c2ccccc12)C(=O)N[C@@H](CC(C)C)C(=O)N[C@H](C(=O)N[C@@H](CCCNC(=N)N)C(=O)NCC(=O)N[C@@H](CCCNC(=N)N)C(=O)NCC(=O)NCC(=O)N[C@@H](CCC(N)=O)C(=O)N[C@@H](CCC(=O)O)C(=O)N[C@@H](CCCCNC(=O)COCCOCCNC(=O)COCCOCCNC(=O)CC[C@H](NC(=O)CCCCCCCCCCCCCCCCC(=O)O)C(=O)O)C(=O)NCC(=O)N[C@@H](CCC(N)=O)C(=O)N[C@@H](CCC(=O)O)C(=O)N1CCC[C@H]1C(=O)N[C@@H](CCC(=O)O)C(=O)N[C@@H](C)C(=O)N[C@@H](CO)C(=O)N[C@@H](CCC(=O)O)C(=O)N[C@@H](CC(C)C)C(=O)N[C@@H](CO)C(=O)N[C@H](C(=O)N[C@@H](C)C(=O)N[C@@H](C)C(=O)N[C@@H](CC(C)C)C(=O)NCC(=O)N[C@@H](CCCNC(=N)N)C(=O)N[C@@H](CC(C)C)C(=O)N[C@@H](CO)C(=O)N[C@@H](C)C(=O)N[C@@H](CCC(=O)O)C(=O)N[C@@H](CC(C)C)C(=O)N[C@@H](Cc1c[nH]cn1)C(=O)N[C@@H](CCC(=O)O)C(=O)N[C@@H](CC(C)C)C(=O)N[C@@H](C)C(=O)N[C@H](C(=O)N[C@@H](CC(C)C)C(=O)N1CCC[C@H]1C(=O)N[C@@H](CCCNC(=N)N)C(=O)N[C@H](C(=O)N[C@@H](CCC(=O)O)C(=O)N[C@H](C(=O)NCC(=O)N[C@@H](CO)C(=O)NCC(=O)N[C@@H](CO)C(=O)N1CCC[C@H]1C(N)=O)[C@@H](C)O)[C@@H](C)O)[C@@H](C)O)[C@@H](C)O)C(C)C` [Compound 0057] were, in that order, 9.78 and 10.23.
Regarding `CC[C@H](C)[C@H](NC(=O)[C@H](Cc1ccccc1)NC(=O)[C@H](CCCCNC(=O)COCCOCCNC(=O)COCCOCCNC(=O)CC[C@H](NC(=O)CCCCCCCCCCCCCCCCC(=O)O)C(=O)O)NC(=O)[C@H](CCCNC(=N)N)NC(=O)[C@H](C)NC(=O)[C@H](C)NC(=O)[C@H](CCC(N)=O)NC(=O)[C@H](CCC(=O)O)NC(=O)[C@H](CCC(=O)O)NC(=O)[C@H](CC(C)C)NC(=O)[C@H](Cc1ccc(O)cc1)NC(=O)[C@H](CO)NC(=O)[C@H](CO)NC(=O)[C@@H](NC(=O)[C@H](CC(=O)O)NC(=O)[C@H](CO)NC(=O)[C@@H](NC(=O)[C@H](Cc1ccccc1)NC(=O)[C@@H](NC(=O)CNC(=O)[C@H](CCC(=O)O)NC(=O)C(C)(C)NC(=O)[C@@H](N)Cc1c[nH]cn1)[C@@H](C)O)[C@@H](C)O)C(C)C)C(=O)N[C@@H](CCC(=O)O)C(=O)N[C@@H](Cc1c[nH]c2ccccc12)C(=O)N[C@@H](CC(C)C)C(=O)N[C@H](C(=O)N[C@@H](CCCNC(=N)N)C(=O)NCC(=O)N[C@@H](CCCCNC(=O)COCCOCCNC(=O)COCCOCCNC(=O)CC[C@H](NC(=O)CCCCCCCCCCCCCCCCC(=O)O)C(=O)O)C(=O)NCC(=O)N[C@@H](CCC(=O)O)C(=O)NCC(=O)N[C@@H](CCC(N)=O)C(=O)N[C@@H](CCC(=O)O)C(=O)N1CCC[C@H]1C(=O)NCC(=O)NCC(=O)N[C@@H](C)C(=O)N[C@@H](CO)C(=O)N[C@@H](CCC(=O)O)C(=O)N[C@@H](CC(C)C)C(=O)N[C@@H](CO)C(=O)N[C@H](C(=O)N[C@@H](C)C(=O)N[C@@H](C)C(=O)N[C@@H](CC(C)C)C(=O)NCC(=O)N[C@@H](CCCNC(=N)N)C(=O)N[C@@H](CC(C)C)C(=O)N[C@@H](CO)C(=O)N[C@@H](C)C(=O)N[C@@H](CCC(=O)O)C(=O)N[C@@H](CC(C)C)C(=O)N[C@@H](Cc1c[nH]cn1)C(=O)N[C@@H](CCC(=O)O)C(=O)N[C@@H](CC(C)C)C(=O)N[C@@H](C)C(=O)N[C@H](C(=O)N[C@@H](CC(C)C)C(=O)N1CCC[C@H]1C(=O)N[C@@H](CCCNC(=N)N)C(=O)N[C@H](C(=O)N[C@@H](CCC(=O)O)C(=O)N[C@H](C(=O)NCC(=O)N[C@@H](CO)C(=O)NCC(=O)N[C@@H](CO)C(=O)N1CCC[C@H]1C(N)=O)[C@@H](C)O)[C@@H](C)O)[C@@H](C)O)[C@@H](C)O)C(C)C` [Compound 0106], in assay [1], the EC50 was determined as 28.4 pM.
On to “H-H[Aib]EGTFTSDVSSYLEEQAARK([AEEA-AEEA-γGlu-γGlu-γGlu-C20 diacid])FIEWLVRGRQEAASELSTAALGRLSAELHQLATLPRTETGSGSP-NH2 [Compound 0636]”, for which, in assay [1], the concentration for a half-maximal effect (EC50) stood at 8.5 pM.
Take “H-H[Aib]EGTFTSDVSSYLEGQAAK([AEEA-AEEA-γGlu-C18 diacid])EFIAWLVRGRGGQEPGQEPK([γGlu-γGlu-C20 diacid])CNTATCATQRLADFLRHSSPNFGAIPSSTNVGSRTY-NH2 (disulfide 41-46) [Comparator compound 0668, reference compound]”: the “Ability to agonise the amylin receptor, in words” value in assay [1] (Tables 4a-4c) is on record as “do not activate the amylin receptor”.
Turning to “H[Aib]EGTFTSDVSSYLEEQAARK([AEEA-AEEA-γGlu-C16 diacid])FIAWLVRGRGGK([AEEA-AEEA-γGlu-C16 diacid])EASELSTAALGRLSAELHELATLPRTETGSGSP-NH2 [Compound 0074]”, in assay [1], the concentration for a half-maximal effect (EC50) came out at 60.9 pM.
